Data from patent US20100184807A1, “Methods to inhibit tumor cell growth by using proton pump inhibitors” (Bio-Quant, Inc., priority 2008, published 2010).

Legend:
Experiment in all cases: MTT tumor cell growth assay
Format in all cases: cell-based
UO-31 (kidney cancer) = conditions: UO-31 cells, lansoprazole 1-100 μM, 48 hours
Method: (§1) In one study, adherent cells were plated approximately 16-24 hours before the day of the experiment in 180 μl growth media. On the day of the experiment, the plated adherent cells were analyzed and counted and suspension cells were plated in 180 μl growth media. 10× lansoprazole compounds and vehicle was prepared. The 10× lansoprazole compounds were prepared by diluting lansoprazole to final concentrations of 100 μM, 30 μM, 10 μM, 3 μM, and 1 μM. A vehicle was prepared by preparing a solution of PBS, equivalent to the volume used for 10 μM lansoprazole wherein the 1× solution constitutes ˜0.06% PBS. 10 μl of the various 10× lansoprazole solutions and the vehicle were added to the cells. The cells were incubated at 37° C., 5% CO2 for 48 hours. The media was then aspirated. The cell suspension was then spun at 1500 RPM for 10 minutes. The media was slowly removed. 200 μl of MTT solution was added to each well with a concentration of 0.863 mg/ml MTT in the growth media. The cells were incubated at 37° C., 5% CO2 for 4 hours and the medium is then aspirated. The plate containing the cell suspension was then spun at 1500 RPM for 10 minutes. The media was slowly removed using a multichannel pipettor. 100 μl of DMSO was then added to each well. The cells were incubated at 37° C., 5% CO2 for 5 minutes and the absorbance was obtained at 560 nm using a Dynex Opsys MR plate reader. The cells used for this procedure were the following cell lines: IGROV1 (ovarian cancer); OVCAR 8 (ovarian cancer); ES-2 (ovarian cancer); CAOV3 (ovarian cancer); OVCAR5 (ovarian cancer); SUDHL4 (lymphoma); RPMI8226 (myeloma); RPMI6666 (Hodgkin's lymphoma); NC37 (lymphoma); GDM-1 (leukemia); MC/CAR (prostate cancer); DU-145 (prostate cancer), J45-01 (leukemia), MOLT3 (leukemia), HUT78, J-gamma-1 (leukemia), MCF7 […], COL0205 (colon cancer), HL60 CLONE 15 (leukemia), T47D (breast cancer), P116 (intestinal cancer), KU812 (leukemia), SW620 (colon cancer), MK92-M1 (lymphoma), MV-4-11 (leukemia), HS578T (breast cancer), HT29 (colon cancer), HCT 116 (colon cancer), CAKI-1 (kidney cancer), A549 (lung cancer), H460 (lung cancer), A3 (colon cancer), MDA-MB231 […], MALME 3M (melanoma), RXF393 (kidney cancer), RS4.11 (leukemia), PC3 (prostate cancer), OVCAR3 (ovarian cancer), MDA-MB435 (melanoma), HUT102 (lymphoma), HL60 (leukemia), CCRF-CEM (leukemia), HUT78 (lymphoma), 786-O (kidney cancer), ACHN (kidney cancer), A498 (kidney cancer), H226 (lung cancer), H522 (lung cancer), HOP92 (lung cancer), SNB 19 (brain cancer), OVCAR4 (ovarian cancer), H9 (lymphoma), UO-31 (kidney cancer), HH (lymphoma), DAUDI (leukemia), LOXIMVI (melanoma), NAMALWA (lymphoma), EKVX (lung cancer), DOHH2 (lymphoma), SNB75 (brain cancer), SKMEL28 (melanoma), SKMEL5 (melanoma), SKMEL2 (melanoma), M14 (melanoma), UACC 257 (melanoma), H332M (lung cancer), KM12 (colon cancer), HCC2998 (colon cancer), G401 (kidney cancer), RS1184 (lymphoma), MC116 (leukemia), MOLT4 (leukemia), JM1 (liver cancer), HOP-62 (lung cancer), HCT-15 (colon cancer), SF-539 (brain cancer), SF295 (brain cancer), ST486 (lymphoma), U251 (brain cancer), and UACC-62 (melanoma).

MDA-MB-231 = MDA-MB-231 cells, lansoprazole 1-100 μM, 48 hours
Method: as §1

RS4.11 (leukemia) = conditions: RS4.11 cells, lansoprazole 1-100 μM, 48 hours
Method: as §1

NK92MI = NK92MI cells, lansoprazole 1-100 μM, 48 hours
Method: as §1

H522 (lung cancer) = conditions: H522 cells, lansoprazole 1-100 μM, 48 hours
Method: as §1

H460 (lung cancer) = conditions: H460 cells, lansoprazole 1-100 μM, 48 hours
Method: as §1

MV-4-11 (leukemia) = conditions: MV-4-11 cells, lansoprazole 1-100 μM, 48 hours
Method: as §1

OVCAR8 (ovarian cancer) = conditions: OVCAR8 cells, lansoprazole 1-100 μM, 48 hours
Method: as §1

PC3 (prostate cancer) = conditions: PC3 cells, lansoprazole 1-100 μM, 48 hours
Method: as §1

H9 (lymphoma) = conditions: H9 cells, lansoprazole 1-100 μM, 48 hours
Method: as §1

HUT102 (lymphoma) = conditions: HUT102 cells, lansoprazole 1-100 μM, 48 hours
Method: as §1

ES-2 (ovarian cancer) = conditions: ES-2 cells, lansoprazole 1-100 μM, 48 hours
Method: as §1

MOLT4 (leukemia) = conditions: MOLT4 cells, lansoprazole 1-100 μM, 48 hours
Method: as §1

HOP-62 (lung cancer) = conditions: HOP-62 cells, lansoprazole 1-100 μM, 48 hours
Method: as §1

MDA-MB-435 (melanoma) = conditions: MDA-MB-435 cells, lansoprazole 1-100 μM, 48 hours
Method: as §1

SKMEL5 (melanoma) = conditions: SKMEL5 cells, lansoprazole 1-100 μM, 48 hours
Method: as §1

Measured: tumor cell growth reduction

Cc1c(OCC(F)(F)F)ccnc1C[S+]([O-])c1nc2ccccc2[nH]1 (stereo not shown) [lansoprazole]
significant tumor cell growth reduction: all assays above
